Our source for the mortality and Activity values is ChEMBL document CHEMBL3045590, “Design, synthesis, bioactivity, and structure-activity relationship (SAR) studies of novel benzoylphenylureas containing oxime ether group” (2008).

What all share (format): functional
Test [1] has as its system Mythimna separata. As to the kind of experiment: Larvicidal activity against fourth-instar larval stage of Mythimna separata (Oriental armyworm) in compound-pretreated corn leaves assessed as mortality at 200 mg/l at 25 +/-1 degC after 4 days.
In test [2] the test system is Culex pipiens pallens. The experiment in a line: Larvicidal activity against fourth-instar larval stage of Culex pipiens pallens (mosquito) assessed as mortality at 1 mg/l at 25 +/-1 degC after 8 days. To be noted: 192 h.
Test [3] relates to Culex pipiens pallens. As to the kind of experiment: Larvicidal activity against fourth-instar larval stage of Culex pipiens pallens (mosquito) assessed as mortality at 0.5 mg/l at 25 +/-1 degC after 8 days. To be noted: 192 h.
The subject of the next test is Cucumis sativus. The experiment in a line: Growth regulation of Cucumis sativus (cucumber) seeds assessed as stimulation of radicle growth at 10 mg/l at 26 degC after 5 days.
For test [4], the system named is Culex pipiens pallens. The experiment in a line: Larvicidal activity against fourth-instar larval stage of Culex pipiens pallens (mosquito) assessed as mortality at 0.1 mg/l at 25 +/-1 degC after 8 days. To be noted: 192 h.
Test [5] has as its system Culex pipiens pallens. The experiment in a line: Larvicidal activity against fourth-instar larval stage of Culex pipiens pallens (mosquito) assessed as mortality at 0.25 mg/l at 25 +/-1 degC after 8 days. As to conditions: 192 h.
For test [6], the system named is Mythimna separata. As to the kind of experiment: Larvicidal activity against fourth-instar larval stage of Mythimna separata (Oriental armyworm) in compound-pretreated corn leaves assessed as mortality at 100 mg/l at 25 +/-1 degC after 4 days.
Test [7] concerns Mythimna separata. The experiment in a line: Larvicidal activity against fourth-instar larval stage of Mythimna separata (Oriental armyworm) in compound-pretreated corn leaves assessed as mortality at 50 mg/l at 25 +/-1 degC after 4 days.
Test [8] concerns Mythimna separata. The experiment in a line: Larvicidal activity against fourth-instar larval stage of Mythimna separata (Oriental armyworm) in compound-pretreated corn leaves assessed as mortality at 25 mg/l at 25 +/-1 degC after 4 days.
The subject of test [9] is Culex pipiens pallens. The experiment in a line: Larvicidal activity against fourth-instar larval stage of Culex pipiens pallens (mosquito) assessed as mortality at 0.05 mg/l at 25 +/-1 degC after 8 days. As to conditions: 192 h.
The subject of test [10] is Culex pipiens pallens. The experiment in a line: Larvicidal activity against fourth-instar larval stage of Culex pipiens pallens (mosquito) assessed as mortality at 0.01 mg/l at 25 +/-1 degC after 8 days. To be noted: 192 h.
For test [11], the system named is Culex pipiens pallens. The experiment in a line: Larvicidal activity against fourth-instar larval stage of Culex pipiens pallens (mosquito) assessed as mortality at 0.025 mg/l at 25 +/-1 degC after 8 days. To be noted: 192 h.
Test [12] concerns Mythimna separata. The experiment in a line: Larvicidal activity against fourth-instar larval stage of Mythimna separata (Oriental armyworm) in compound-pretreated corn leaves assessed as mortality at 5 mg/l at 25 +/-1 degC after 4 days.
The subject of test [13] is Mythimna separata. As to the kind of experiment: Larvicidal activity against fourth-instar larval stage of Mythimna separata (Oriental armyworm) in compound-pretreated corn leaves assessed as mortality at 10 mg/l at 25 +/-1 degC after 4 days.
Test [14] has as its system Mythimna separata. The experiment in a line: Larvicidal activity against fourth-instar larval stage of Mythimna separata (Oriental armyworm) in compound-pretreated corn leaves assessed as mortality at 2.5 mg/l at 25 +/-1 degC after 4 days.
The subject of test [15] is Mythimna separata. The experiment in a line: Larvicidal activity against fourth-instar larval stage of Mythimna separata (Oriental armyworm) in compound-pretreated corn leaves assessed as mortality at 1 mg/l at 25 +/-1 degC after 4 days.

On to `O=C(NC(=O)c1c(F)cccc1F)Nc1ccc(/C=N/OCc2ccccc2)cc1`, for which the mortality at 200 µg/mL in the test on Mythimna separata [1] is 40%. Moreover, the mortality at 1 µg/mL in the test on Culex pipiens pallens [2] is 100%. Also, the mortality at 0.5 µg/mL in the test with Culex pipiens pallens [3] came out at 100%. The Activity in the test with Cucumis sativus turned out to be 60%. Also, the mortality at 0.1 µg/mL with Culex pipiens pallens [4] stood at 10%. The mortality at 0.25 µg/mL in the test on Culex pipiens pallens [5] is 20%. In the test on Mythimna separata [6], the mortality at 100 µg/mL came to 30%. Besides, the mortality at 50 µg/mL in the test with Mythimna separata [7] came out at 10%. Besides, the mortality at 25 µg/mL in the test with Mythimna separata [8] was 0%.
For `CO/N=C/c1ccc(NC(=O)NC(=O)c2c(F)cccc2F)cc1`, the mortality at 1 µg/mL with Culex pipiens pallens [2] worked out at 100%. Also, in the test on Culex pipiens pallens [3], the mortality at 0.5 µg/mL turned out to be 100%. For the same molecule, the Activity with Cucumis sativus is given as 30%. Also, the mortality at 0.05 µg/mL with Culex pipiens pallens [9] was determined as 100%. Further, in the test with Culex pipiens pallens [4], the mortality at 0.1 µg/mL was 100%. Besides, the mortality at 0.25 µg/mL in the test on Culex pipiens pallens [5] worked out at 100%. Also, in the test on Mythimna separata [6], the mortality at 100 µg/mL is 90%. In the test with Culex pipiens pallens [10], the mortality at 0.01 µg/mL was 0%. In the test on Mythimna separata [7], the mortality at 50 µg/mL worked out at 40%. For the same molecule, the mortality at 0.025 µg/mL in the test on Culex pipiens pallens [11] came to 10%. Besides, the mortality at 25 µg/mL in the test with Mythimna separata [8] came out at 0%.
Turning to `CCO/N=C/c1ccc(NC(=O)NC(=O)c2c(F)cccc2F)cc1`, the mortality at 5 µg/mL with Mythimna separata [12] turned out to be 0%. Moreover, in the test on Culex pipiens pallens [2], the mortality at 1 µg/mL is 100%. Also, the mortality at 0.5 µg/mL with Culex pipiens pallens [3] turned out to be 100%. The Activity with Cucumis sativus turned out to be 0%. The mortality at 10 µg/mL with Mythimna separata [13] amounted to 10%. Besides, the mortality at 0.1 µg/mL in the test on Culex pipiens pallens [4] is 100%. The mortality at 0.25 µg/mL with Culex pipiens pallens [5] is 100%. In the test with Mythimna separata [6], the mortality at 100 µg/mL is 100%. For the same molecule, the mortality at 0.01 µg/mL in the test on Culex pipiens pallens [10] was 0%. In the test on Mythimna separata [7], the mortality at 50 µg/mL was 100%. The mortality at 0.025 µg/mL with Culex pipiens pallens [11] came out at 10%. For the same molecule, the mortality at 25 µg/mL in the test with Mythimna separata [8] came out at 75%.
As for `CCCO/N=C/c1ccc(NC(=O)NC(=O)c2c(F)cccc2F)cc1`, the mortality at 2.5 µg/mL in the test with Mythimna separata [14] stood at 0%. Moreover, the mortality at 1 µg/mL with Culex pipiens pallens [2] worked out at 100%. In the test with Culex pipiens pallens [3], the mortality at 0.5 µg/mL amounted to 100%. For the same molecule, in the test on Culex pipiens pallens [9], the mortality at 0.05 µg/mL is 50%. Moreover, the mortality at 0.1 µg/mL in the test with Culex pipiens pallens [4] was 100%. Further, the mortality at 0.25 µg/mL in the test on Culex pipiens pallens [5] stood at 100%. Besides, in the test on Mythimna separata [6], the mortality at 100 µg/mL is 80%. Moreover, in the test with Mythimna separata [7], the mortality at 50 µg/mL was found to be 70%. For the same molecule, in the test on Culex pipiens pallens [11], the mortality at 0.025 µg/mL came to 0%. In addition, the mortality at 25 µg/mL in the test with Mythimna separata [8] worked out at 20%.
`O=C(NC(=O)c1c(F)cccc1F)Nc1ccc(/C=N/OCCCl)cc1`: the mortality at 2.5 µg/mL with Mythimna separata [14] came out at 55%. Further, the mortality at 5 µg/mL in the test on Mythimna separata [12] was 75%. In addition, the mortality at 1 µg/mL was 100% in the test with Culex pipiens pallens [2] and 0% in the test on Mythimna separata [15]. The mortality at 0.5 µg/mL in the test with Culex pipiens pallens [3] came to 100%. For the same molecule, in the test with Cucumis sativus, the Activity amounted to 110%. In addition, the mortality at 0.05 µg/mL in the test with Culex pipiens pallens [9] is 90%. Also, the mortality at 10 µg/mL in the test on Mythimna separata [13] was 100%. Moreover, the mortality at 0.1 µg/mL in the test with Culex pipiens pallens [4] was found to be 90%. In the test on Culex pipiens pallens [5], the mortality at 0.25 µg/mL was 100%. Moreover, the mortality at 0.01 µg/mL in the test with Culex pipiens pallens [10] is 0%. The mortality at 50 µg/mL in the test on Mythimna separata [7] turned out to be 100%. In the test on Culex pipiens pallens [11], the mortality at 0.025 µg/mL is 20%.
`O=C(NC(=O)c1c(F)cccc1F)Nc1ccc(/C=N/OCCF)cc1`: the mortality at 2.5 µg/mL in the test with Mythimna separata [14] is 0%. The mortality at 1 µg/mL in the test with Culex pipiens pallens [2] stood at 100%. For the same molecule, in the test on Culex pipiens pallens [3], the mortality at 0.5 µg/mL is 100%. For the same molecule, the Activity in the test on Cucumis sativus was determined as 110%. Besides, in the test with Culex pipiens pallens [9], the mortality at 0.05 µg/mL stood at 10%. The mortality at 10 µg/mL in the test with Mythimna separata [13] was found to be 20%. In the test on Culex pipiens pallens [4], the mortality at 0.1 µg/mL is 60%. For the same molecule, the mortality at 0.25 µg/mL in the test on Culex pipiens pallens [5] is 100%. For the same molecule, the mortality at 50 µg/mL in the test on Mythimna separata [7] turned out to be 90%. In the test with Culex pipiens pallens [11], the mortality at 0.025 µg/mL was determined as 0%. The mortality at 25 µg/mL in the test on Mythimna separata [8] turned out to be 90%.
With `C=CCO/N=C/c1ccc(NC(=O)NC(=O)c2c(F)cccc2F)cc1`, the mortality at 1 µg/mL in the test on Culex pipiens pallens [2] worked out at 100%. Also, in the test on Culex pipiens pallens [3], the mortality at 0.5 µg/mL amounted to 100%. Further, the Activity in the test with Cucumis sativus stood at 120%. Moreover, the mortality at 10 µg/mL in the test with Mythimna separata [13] amounted to 0%. Besides, in the test with Culex pipiens pallens [4], the mortality at 0.1 µg/mL worked out at 90%. Also, in the test on Culex pipiens pallens [5], the mortality at 0.25 µg/mL was 100%. For the same molecule, the mortality at 100 µg/mL in the test on Mythimna separata [6] came to 90%. The mortality at 50 µg/mL in the test on Mythimna separata [7] came out at 66.7%. Also, the mortality at 0.025 µg/mL in the test on Culex pipiens pallens [11] came to 0%. For the same molecule, in the test with Mythimna separata [8], the mortality at 25 µg/mL turned out to be 10%.
Take `C#CCO/N=C/c1ccc(NC(=O)NC(=O)c2c(F)cccc2F)cc1`: the mortality at 2.5 µg/mL in the test on Mythimna separata [14] amounted to 10%. For the same molecule, the results for the mortality at 1 µg/mL in the test with Culex pipiens pallens [2] and in the test on Mythimna separata [15] were 100% and 0%, respectively. Moreover, the mortality at 0.5 µg/mL in the test with Culex pipiens pallens [3] is 100%. Besides, the mortality at 0.05 µg/mL in the test with Culex pipiens pallens [9] came out at 40%. In addition, the mortality at 10 µg/mL with Mythimna separata [13] stood at 55%. Moreover, the mortality at 0.1 µg/mL in the test with Culex pipiens pallens [4] stood at 100%. In addition, in the test on Culex pipiens pallens [5], the mortality at 0.25 µg/mL was 100%. In the test on Culex pipiens pallens [10], the mortality at 0.01 µg/mL stood at 0%. In the test on Mythimna separata [7], the mortality at 50 µg/mL came to 100%. Besides, the mortality at 0.025 µg/mL in the test with Culex pipiens pallens [11] was 10%. Further, in the test on Mythimna separata [8], the mortality at 25 µg/mL is 75%.

Usually mortality stands for the percentage killed.
